SMILES | melting point [°C]
O=C(O)c1csc(C2CC2)n1 | 123 to 125
CCCCCCc1nc(S)c2c(=O)n(C)c(=O)n(CCC)c2n1 | 172 to 174
Cn1cc(C(=O)O)c(-c2cccnc2)n1 | 201 to 203
N#Cc1ccsc1NC(=O)CCl | 160 to 170
O=C(O)c1ccc(N2CCCCC2)c(S(=O)(=O)N2CCCCC2)c1 | 196 to 198
CCOc1ccc(C(=O)CC(=O)C(=O)OC)cc1 | 88 to 92
CC(C)CC(=O)Nc1ccc(C(=O)O)cc1F | 257 to 259
Nc1ccnn1C1CCCCC1 | 80 to 82
O=C1NC(=O)N(C2CCCCC2)C1=O | 187 to 189
COc1cccc2c1C(=O)CC2 | 99 to 102
CC(C)CN1CCCCC1C(=O)O (configuration not stated) | 198 to 200
O=C(O)c1cc(-c2ccccc2F)on1 | 182 to 184
O=C(O)Cc1csc(Cc2ccc(F)cc2)n1 | 137 to 139
Cc1cc(C)c(C=O)cc1C | 41 to 46
Cc1ccc(C#N)c(=O)n1C | 129 to 131
COc1cccc(/C=C/c2cc(C(=O)O)c3cc(Br)ccc3n2)c1 | 285 to 287
O=C(O)Cn1c(=O)cnc2ccccc21 | 195 to 199
O=C(O)c1ccc(CS)cc1 | 179 to 181
CNc1ncc(C(F)(F)F)cc1Cl | 44 to 46
Cc1ccc(NS(=O)(=O)c2c[nH]c(C(=O)O)c2)c(C)c1 | 218 to 220
NNc1ccc(S(=O)(=O)NC2CCCCCCC2)cn1 | 140 to 142
CC(=O)Nc1cc(-c2csc(N)n2)ccc1O | 218 to 222
COC(=O)c1ccc(S(=O)(=O)Cl)c(Br)c1 | 82 to 84

SMILES | melting point [°C]
Cc1nn(Cc2ccc(F)cc2)c(Cl)c1C=O | 49 to 51
CC(C)NS(=O)(=O)c1ccc(Cl)c(C(=O)O)c1 | 147 to 149
O=S(=O)(Cl)C=Cc1ccc(F)cc1 | 110 to 112
Fc1ccc(-c2csc3ncnc(Cl)c23)cc1 | 139 to 141
N#Cc1ccc(CSCC(=O)O)cc1 | 86 to 88
CC(O)CNC(=O)c1cccc(O)c1 (configuration not stated) | 116 to 118
O=C(O)C=C1CCSCC1 | 56 to 58
O=C(O)[C@@H]1CC(O)CN1C(=O)OCC1c2ccccc2-c2ccccc21 (some centres not stated) | 189 to 191
CCc1ccc2nc(N)sc2c1 | 105 to 107
CCOC(=O)/C(C#N)=C\Nc1cc(C)ccc1OC | 131 to 133
O=C(O)Cc1csc(NC(=O)c2ccccc2F)n1 | 204 to 206
CC(=O)Nc1c(C)cc(N)cc1C | 204 to 206
Cc1ccc(F)c(NC(=S)NN)c1 | 133 to 135
O=C(O)Cc1coc(-c2ccccc2)n1 | 148 to 150
Oc1ccccc1SC(F)(F)F | 32 to 34
CCOC(=O)c1cc2cc(C(=O)O)ccc2[nH]1 | 247 to 249
COc1ccccc1C(=O)Nc1ccc(O)cc1 | 172 to 174
Cc1noc2nc(-c3cccs3)cc(C(=O)O)c12 | 138 to 140
CC1(c2c(F)cccc2F)CC1C(=O)O (configuration not stated) | 113 to 115
c1ccc2c(c1)CNc1ccccc1-2 | 120 to 122
COc1cc(NC(=O)C2CCCCC2)c(C(=O)O)cc1OC | 155 to 157
O=C(COc1ccccc1C(=O)O)Nc1cccc(C(F)(F)F)c1 | 243 to 245
CN(CCS(=O)(=O)F)S(=O)(=O)c1ccc(F)cc1 | 129 to 131

SMILES | melting point [°C]
COCCS(=O)(=O)c1ccc(Cl)c(C(=O)O)c1Cl | 129 to 131
CNC(=O)CNC(=S)NN | 156 to 158
Cc1nn(CCCl)c(C)c1C(=O)O | 139 to 141
COCCOc1ccc(C#N)cn1 | 39 to 41
CCOC(=O)c1cnn(-c2ncccn2)c1N | 181 to 183
N#Cc1cccc(S(=O)(=O)Nc2cn[nH]c2)c1 | 162 to 164
CCc1sc(C(=O)O)cc1Br | 155 to 157
CCOC(=O)c1ccc2c(c1)NC(=O)C(C)N2 (configuration not stated) | 181 to 183
CN(C)c1ccc(C2=CCNC2)cc1 | 99 to 101
O=C(O)c1cccc2c3c([nH]c12)CCCC3 | 190 to 192
OC1C2CCCC1CN(Cc1ccccc1)C2 (configuration not stated) | 88 to 90
CC1N=C(S)N(C2CC2)C1=O (configuration not stated) | < 17
Cn1nc(Br)c2c(N)ncnc21 | 228 to 230
N#CCn1c(C(=O)O)cc2ccccc21 | 192 to 194
CCCC(=O)Nc1nc2ccc(N)cc2s1 | 182 to 184
Nc1nnc(-c2ccc(Br)cc2F)s1 | 194 to 196
O=C(Nc1cccc(C(=O)O)c1)Nc1ccc(Cl)c(Cl)c1 | 279 to 281
Clc1nc(C=Cc2ccc(Br)cc2)nc2sc3c(c12)CCCC3 | 168 to 170
N#Cc1cnc2ccccc2c1N1CCNCC1 | 160 to 162
CSc1cc(Br)ccc1C=O | 81 to 83
CCCn1c(=O)n(C)c(=O)c2c(S)nc(C(C)C)nc21 | 204 to 206
CC(O)c1ccc(O)cc1 (configuration not stated) | 131 to 133
Nc1cc(C(=O)O)cnc1Cl | 199 to 201

SMILES | melting point [°C]
O=C(O)CCN1C(=O)C(=O)c2ccc(F)cc21 | 179 to 181
O=C(Cc1ccc(O)cc1)NCCO | 134 to 136
CNC(C)c1sc(-c2ccc(C)cc2)nc1C (configuration not stated) | 77 to 79
OCC1(NCCc2ccccc2)CCCC1 | 86 to 88
O=C(O)c1cc2c(c(S(=O)(=O)Cl)c1)CCC2 | 197 to 199
Nc1nc(C(=O)O)n[nH]1 | 178 to 182
O=C(O)C(O)C1CCOCC1 (configuration not stated) | 79 to 81
CCNC(=O)NC(=O)CN(C)Cc1ccccc1 | 62 to 64
CC(Cc1ccc(Cl)cc1)C(=O)O (configuration not stated) | 49 to 51
Nc1nc2ccccc2n2nnnc12 | 289 to 291
NCCn1ncc2ccccc2c1=O | 87 to 89
Cc1[nH]c(C(=O)O)c(C)c1C(=O)O | 244 to 246
NC(=NO)c1ccccc1CN1CCC(O)CC1 | 137 to 139
O=Cc1ccc([N+](=O)[O-])c(O)c1 | 132 to 134
Cc1cc(C)c2c(N)nsc2n1 | 180 to 182
Fc1cccc(-c2noc(S)n2)c1 | 93 to 95
O=C(O)C1=C(Nc2ccccc2)OCC1=O | 140 to 150
Nc1cc(-c2cc(F)cc(F)c2)no1 | 114 to 116
CN1CCCc2cc(/C=C/C(=O)O)ccc21 | 169 to 171
CN(c1ccc(-c2csc(N)n2)cc1)S(C)(=O)=O | 205 to 207

Next, values leading:

melting point [°C] | SMILES
147 to 149 | O=C(O)C=CC1=CCCC1
239 to 241 | COc1cc(C)cc2c(C)c(C(=O)O)oc12
19 to 20 | Cc1ccc(C)c(-n2c(=O)c(N)c(C)n2C)c1
40 to 45 | CCOc1ccc(S(=O)(=O)Cl)cc1
102 to 104 | CC(Cl)C(=O)Nc1ccccc1C(=O)NCc1ccco1 (configuration not stated)
134 to 136 | O=C1c2ccccc2N2C(=O)CCC2(C(=O)O)N1Cc1ccccc1 (configuration not stated)
172 to 174 | O=C(O)c1cnn(-c2cccc(C(F)(F)F)c2)c1C1CC1
123 to 125 | Sc1nnnn1C1CCCC1
151 to 153 | COc1ccc2c(c1)CC(=O)NCC2
118 to 122 | CCOc1ccc(-n2c(C)cc(C(=O)CCl)c2C)cc1
59 to 61 | Clc1cc(Cl)cc(OCC2CCNCC2)c1
151 to 153 | O=C(O)c1ccc(S(=O)(=O)Nc2cccc(Cl)c2F)o1
64 to 66 | O=C(CN1CCNCC1)N1CCCc2ccccc21
90 to 92 | Cc1ccc(Oc2ccc(N)cc2)nc1
181 to 183 | NS(=O)(=O)c1cccc(-n2cnnn2)c1
58 to 60 | Cn1ccnc1C(N)c1ccccc1F (configuration not stated)
125 to 127 | Nc1ccc(SCc2cccnc2)cc1
154 to 156 | CC(=O)c1oc2ccccc2c1N
94 to 96 | CCC(CC)(C(=O)O)c1ccc(Cl)c(Cl)c1
257 to 259 | O=C(O)CCC(=O)Nc1nccs1
240 to 242 | Cn1c(=O)ccn(CC(=O)O)c1=O
77 to 79 | COc1cc(C)ccc1C(=O)CBr
61 to 63 | NNc1ccc(C(F)(F)F)cn1
135 to 137 | CC(C(=O)Nc1cccc(N)c1)n1cccn1 (configuration not stated)
92 to 94 | O=[N+]([O-])c1cc(Cl)c(S(=O)(=O)Cl)c(Cl)c1
135 to 137 | CCN(CC)c1ccc(S(N)(=O)=O)cc1NC(=O)CCl
113 to 115 | CC(=O)Nc1cccc(CO)c1

melting point [°C] | SMILES
104 to 106 | COC(=O)c1nc2nc(C(C)C)cc(Cl)n2n1
159 to 161 | CC1CC(N)=NN1Cc1ccccc1 (configuration not stated)
165 to 167 | CCc1cccc2c(C(=O)CCl)c[nH]c12
92 to 94 | CN(Cc1ccccc1)S(N)(=O)=O
104 to 106 | O=Cc1sc2ccccc2c1Cl
158 to 161 | CC(=O)c1ccc(OC(C)C(=O)O)cc1 (configuration not stated)
67 to 69 | O=C(CCl)NCCOc1ccccc1
49 to 51 | COC(=O)COc1ccc(Br)cc1
163 to 165 | O=C(O)CCS(=O)(=O)N1CCOCC1
117 to 119 | O=C(CCl)Nc1ccc(Oc2cccc(Cl)c2)cc1
182 to 187 | O=C(CCl)c1ccc(C2CCCCC2)cc1
240 to 245 | O=C(CCl)N1CCN(S(=O)(=O)c2ccc(Cl)s2)CC1
142 to 144 | N#Cc1ccc(CS(=O)(=O)NN)cc1
136 to 138 | NC(=O)c1cccc(NCc2ccc(F)cc2)c1
136 to 138 | CC1CCCN(Cc2csc(N)n2)C1 (configuration not stated)
61 to 63 | N#Cc1cccc(C(=O)N2CCCCC2)c1
59 to 61 | CC(=O)Nc1cccc(C(C)N)c1 (configuration not stated)
339 to 341 | Cc1nc(NC(=N)N)nc2ccccc12
119 to 121 | CCCn1ncc(C(=O)O)c1C1CC1
78 to 80 | O=C(O)Cc1ccc(OC(F)F)cc1
156 to 158 | COc1cc(C(=O)O)cc(Cl)c1OC(C)C
119 to 121 | CC1(C(=O)O)CCCN1C(=O)OCc1ccccc1 (configuration not stated)
254 to 256 | COc1ccc2sc(C(=O)O)c(C)c2c1
157 to 159 | Cn1cc(C(=O)O)c(C2CCCCC2)n1
229 to 231 | NS(=O)(=O)c1c[nH]c(C(=O)O)c1
99 to 101 | NC(=NO)c1cccc(NC(=O)CN2CCOCC2)c1

Source: a melting point compilation (Tetko et al.)
